How the values were obtained:
Format in all cases: cell-based
[1] = test system: mouse smooth muscle cells; assay: mitogenic effect of IGF-1 on mouse smooth muscle cells in vitro; settings: IGF-1 stimulated
[2] = test system: PI3kinase/Akt pathway; assay: FOXO reporter in transfected HEK cells exposed to IGF-1; settings: HEK cells transfected with FOXO reporter
From the text: In addition, the inventors transfected HEK cells by a FOXO reporter measuring the activity of the Pl3kinase/Akt pathway downstream of IGF-1 receptor.

[3] = test system: calpain; assay: calpain activity assays in cell lines expressing IGF-1 receptor after exposure to IGF-1; settings: including immortalized podocytes
From the text: Inventors first focused their work on somatotropic axis and particularly IGF-1 receptor role in calpain activation. […] Calpain activity assays developed in the laboratory have been performed in several cell lines expressing IGF-1 receptor (podocyte lines, splenocytes, mesangial cells) after exposure to IGF-1.

| Substance | mitogenic effect of IGF-1 [1] | activity of the PI3kinase/Akt pathway downstream of IGF-1 receptor (FOXO reporter) [2] | calpain activity [3] |
| --- | --- | --- | --- |
| (2Z)-3-(4-iodophenyl)-2-mercapto-2-Propenoic acid, 3-(4-iodophenyl)-2-mercapto-(Z)-2-propenoic acid [PD-150606] | blunted partly but significantly | inhibited significantly |  |
| IGF-1: ligand of the IGF-1 receptor, somatotropic axis; used to stimulate cell lines |  |  | increase calpain activity in a dose- and time-dependent manner |
